In PMC5303145 (Brain research, 2016):
Substitutions are numbered along the chain they refer to.

Legend:
D97 mutant GlyR = settings: saturating concentrations of glycine or taurine
D97R α1 GlyR [1] = molecular target: T1, D97R α1 GlyR (Homo sapiens, UniProt P23415, D125R); format: cell-based; settings: for average current elicited: 10 mM glycine or 100 mM taurine; for increase of maximal currents by the D97R mutation: D97R versus WT; for Imax (% of max glycine): D97R, percentage of maximal glycine current ± S.E.M.
T1 sequence (P23415 29-449 isoform P23415-2 D125R limits assumed): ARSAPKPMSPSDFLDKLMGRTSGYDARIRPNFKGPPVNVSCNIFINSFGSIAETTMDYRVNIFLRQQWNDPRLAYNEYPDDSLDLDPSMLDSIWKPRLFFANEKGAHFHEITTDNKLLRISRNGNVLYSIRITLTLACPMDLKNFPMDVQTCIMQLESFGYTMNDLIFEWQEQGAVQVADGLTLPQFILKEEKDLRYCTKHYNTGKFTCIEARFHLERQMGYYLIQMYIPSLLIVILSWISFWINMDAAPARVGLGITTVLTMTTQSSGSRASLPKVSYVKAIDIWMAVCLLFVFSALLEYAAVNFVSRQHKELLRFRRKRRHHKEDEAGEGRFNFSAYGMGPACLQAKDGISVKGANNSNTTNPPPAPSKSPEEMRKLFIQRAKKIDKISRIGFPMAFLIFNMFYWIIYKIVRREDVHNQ

D97E α1 GlyR = molecular target: T2, D97E α1 GlyR (Homo sapiens, UniProt P23415, D125E); format: cell-based; settings: for average current elicited: D97E α1 GlyR, 10 mM glycine or 100 mM taurine
T2 sequence (P23415 29-449 isoform P23415-2 D125E limits assumed): T1 sequence (P23415 29-449 isoform P23415-2 D125R limits assumed) with R97E

[2] = molecular target: T3, human α1 glycine receptor WT (Homo sapiens, UniProt P23415); format: cell-based; settings: for average current elicited: WT GlyR, 10 mM glycine or 100 mM taurine; for Imax (% of max glycine): α1 WT, percentage of maximal glycine current ± S.E.M.
T3 sequence (P23415 29-449 isoform P23415-2 limits assumed): T1 sequence (P23415 29-449 isoform P23415-2 D125R limits assumed) with R97D

D97R α1 GlyR [3] = molecular target: T1, D97R α1 GlyR; format: cell-based; settings: for conductance of the openings: in the presence of taurine or glycine; for Popen of clusters: saturating concentration (100 mM taurine, 10 mM glycine), 2.5 mM tricine
D97A α1 GlyR = settings: for Popen of clusters: D97A, saturating concentration (100 mM taurine, 10 mM glycine), 2.5 mM tricine
wildtype α1 GlyR = format: cell-based, human

| SMILES | whole-cell current (D97 mutant GlyR) | average current elicited (D97R α1 GlyR [1]; D97R α1 GlyR) [μA] | average current elicited (D97E α1 GlyR) [μA] | average current elicited [2] [μA] | conductance of the openings (D97R α1 GlyR [3]) | Popen of clusters (D97R α1 GlyR [3]) | total current in patch (D97A α1 GlyR; D97A multi-channel patch, sample tracing, 10 mM glycine) [pA] | Popen of clusters (D97A α1 GlyR) | maximal taurine response versus maximal glycine response (D97R α1 GlyR [1]; D97R GlyR, 100 mM taurine vs 10 mM glycine) | greater current than glycine (D97R α1 GlyR [1]; D97R α1 GlyR, taurine and glycine both at 300 mM) [%] | Imax (% of max glycine) (D97E α1 GlyR; D97E, percentage of maximal glycine current ± S.E.M.) [%] | EC50 ([2]; EC50, α1 WT, whole-cell, oocytes, 2.5 mM tricine) [µM] | Imax (% of max glycine) [2] [%] | Popen (wildtype α1 GlyR) | increase of maximal currents by the D97R mutation (D97R α1 GlyR [1]) | Imax (% of max glycine) (D97R α1 GlyR [1]) [%] |
| --- | --- | --- | --- | --- | --- | --- | --- | --- | --- | --- | --- | --- | --- | --- | --- | --- |
| NCC(=O)O [Glycine] | 3000–5000 nA | 3.68 ± 0.37 | 11.9 ± 2.9 | 27.6 ± 2.9 | approximately 75 pS | 0.990 ± 0.001 | 84 | 0.938 ± 0.044 | – | – | – | – | – | – | – | – |
| NCCS(=O)(=O)O [Taurine] | 3000–5000 nA | 3.56 ± 0.36 | 11.4 ± 2.9 | 11.8 ± 1.7 | approximately 75 pS | 0.990 ± 0.002 | – | 0.987 ± 0.003 | approximately equal | 12.7 ± 7.1 | 95.6 ± 4.7 | 1960 | 41 ± 4.5 | 0.62 ± 0.06 | – | – |
| CC(N)CC(=O)O (stereo not drawn) [β-ABA, β-aminobutyric acid] | – | – | – | – | – | – | – | – | – | – | – | – | 17.3 ± 9.2 | – | four- to five-fold | 89 |
| CC(CN)C(=O)O (stereo not drawn) [β-AIBA, β-aminoisobutyric acid] | – | – | – | – | – | – | – | – | – | – | – | – | 15.3 ± 3.3 | – | four- to five-fold | 61 |
